According to paper PMC2957683, “IKKβ inhibitor identification: a multi-filter driven novel scaffold” (2010):

Target: T1, IKKβ (Homo sapiens, UniProt O14920)
T1 construct: gene IKBKB
T1 sequence (O14920 1-756): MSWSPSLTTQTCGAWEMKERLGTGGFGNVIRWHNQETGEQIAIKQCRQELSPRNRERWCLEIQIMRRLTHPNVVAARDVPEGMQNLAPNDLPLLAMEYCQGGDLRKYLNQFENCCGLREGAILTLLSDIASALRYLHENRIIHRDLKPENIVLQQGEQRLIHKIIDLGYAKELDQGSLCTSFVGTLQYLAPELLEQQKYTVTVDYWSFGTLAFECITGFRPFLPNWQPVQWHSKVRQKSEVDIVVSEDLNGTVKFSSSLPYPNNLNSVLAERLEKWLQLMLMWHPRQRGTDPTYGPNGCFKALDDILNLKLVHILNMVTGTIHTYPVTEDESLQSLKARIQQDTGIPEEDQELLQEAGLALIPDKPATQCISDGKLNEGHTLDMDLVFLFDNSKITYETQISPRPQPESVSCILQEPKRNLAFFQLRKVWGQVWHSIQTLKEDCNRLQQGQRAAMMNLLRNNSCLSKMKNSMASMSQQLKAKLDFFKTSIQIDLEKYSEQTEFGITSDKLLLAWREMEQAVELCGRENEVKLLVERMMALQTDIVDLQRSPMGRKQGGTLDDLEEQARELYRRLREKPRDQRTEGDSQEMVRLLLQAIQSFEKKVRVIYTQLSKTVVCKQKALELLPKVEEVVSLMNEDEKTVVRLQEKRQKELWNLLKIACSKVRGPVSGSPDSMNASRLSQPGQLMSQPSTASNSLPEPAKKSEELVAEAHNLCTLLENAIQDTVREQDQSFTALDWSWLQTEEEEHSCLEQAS
Assay: IMAP TR-FRET kinase assay with IKKβ enzyme (Millipore), IκBα-derived peptide substrate, […] ATP
Type: biochemical

Compound | IC50
N#Cc1c(C2CCCNC2)cc(-c2ccccc2O)nc1N (centres unmarked) [Bayer-5a] | 0.17 µM
COc1ccc(-c2nc3c(c(SCC(=O)Nc4cccc(O)c4)n2)Cc2c(CO)cnc(C)c2O3)cc1 [VH01] | 20.3 µM
